Drawing on patent US10196353B2, “Chemical compounds” (GlaxoSmithKline Intellectual Property (No. 2) Limited, priority 2012, dated 2019), this text covers Emax, prostate sparing and levator ani hypertrophy for 14 compounds.

Assay [1] addresses androgen receptor (MBP-hAR-LBD, rat androgen ligand binding domain) (Rattus norvegicus (Rat), UniProt P15207). Nature of the assay: Androgen receptor fluorescence polarization assay. Particulars: read-out: % Max. The text has this:
• The following abbreviations and sources of materials are used • Fluormone PL Red—a commercially available PR fluoroprobe (Invitrogen, P2964) • Fluormone GS Red—a commercially available GR fluoroprobe (PanVera Corp, Product No P2894) • Fluormone AL Red—a commercially available AR fluoroprobe (Invitrogen, PV4294,) • MBP-hPR-LBD—maltose binding protein Purified human progesterone ligand binding domain (made in house) • GR—purified human glucocorticoid receptor (PanVera Corp, Product No P2812) • MBP-hAR-LBD—maltose binding protein Purified rat androgen ligand binding domain (made in house) • PR Screening Buffer—100 mM potassium phosphate (pH 7.4), 100 μG/ml bovine gamma globulin, 15% ethylene glycol, 10% glycerol with 2 mM CHAPS, 1 mM DTT added fresh and 4% DMSO added fresh (final of 5% DMSO in assay with 1% concentration coming from compound dispense) • AR Screening Buffer—50 mM Tris pH 7.5, 100 mM Ammonium Sulfate, 20% glycerol, 3% xylitol with 5 mM Chaps, 2 mM DTT added fresh and 4% DMSO added fresh (final of 5% DMSO in assay with 1% concentration coming from compound dispense) • GR Screening Buffer—100 mM potassium phosphate (pH 7.4), 200 mM Na2MoO2, 1 mM EDTA, 20% DMSO (PanVera Corp Product No P2814) with GR stabilizing peptide (100 μM) (PanVera Corp Product No P2815) • DTT—dithiothreitol (PanVera Corp Product No P2325) • Discovery Analyst—is an FP reader • DMSO—dimethylsulphoxide Progesterone Receptor Fluorescence Polarization Assay:
The androgen receptor fluorescence polarization assay is used to investigate the interaction of the compounds with the androgen receptor.
Compounds are added to the 384 well black low-volume plates to a final volume of 0.1 μL. DTT and DMSO are added to the chilled assay buffer just before beginning assay. Sufficient Fluormone AL Red and AR-LBD are defrosted on ice and added to the chilled buffer in a glass tube to give a final concentration of 1 nM and 100 nM, (for current batch) respectively. A volume of 10 μL of the assay mix is added to compound plates with a multidrop. […] The plates are counted in a Discovery Analyst with suitable 535 nm excitation and 590 nm emission interference filters (Dichroic 561 nM). […] Test compounds are dissolved and diluted in DMSO. Compounds are assayed in singlicate, a four parameter curve fit of the following form being applied
[formula] where a is the minimum, b is the Hill slope, c is the IC50 and d is the maximum.
Data is presented as the mean pIC50 with the standard error of the mean of n experiments.

Assay [2] concerns castrated male Sprague-Dawley rats. Kind of assay: Castrated male rat model (ORX rat). Type of assay: in vivo. Particulars: for prostate sparing: defined as at least a 2:1 ratio of levator ani ED50 to prostate ED50; for levator ani hypertrophy: favorable = 30% or greater increase in levator ani weight vs vehicle-treated castrates, dosed orally at up to 10 mg/kg/day. From the text: The activity of the compounds of the present invention as modulators of the androgen receptor was investigated using a castrated male rat model (ORX) as described in C. D. Kockakian, Pharmac. Therap. B1(2), 149-177 (1975); C. Tobin and Y. Joubert, Developmental Biology 146, 131-138 (1991); J. Antonio, J. D. Wilson and F. W. George, J Appl. Physiol. 87(6) 2016-2019 (1999)) the disclosures of which herein are included by reference.
Androgens have been identified as playing important roles in the maintenance and growth of many tissues in both animals and humans. Muscles, like the levator ani and bulbocavernosus, and sexual accessory organs, such as the prostate glands and seminal vesicles have high expression levels of the androgen receptor and are known to respond quickly to exogenous androgen addition or androgen deprivation through testicular ablation. Castration produces dramatic atrophy of muscle and sexual accessory organs; whereas the administration of exogenous androgens to the castrated animal results in effective hypertrophy of these muscles and sexual accessory organs. Although the levator ani muscle, also known as the dorsal bulbocavernosus, is not ‘true skeletal muscle’ and definitely sex-linked, it is reasonable to use this muscle to screen muscle anabolic activities of test compounds because of its androgen responsiveness and simplicity of removal.
Male Sprague-Dawley rats weighing 160-180 grams were used in the assay. The rats were singly caged upon receiving and throughout the study. Bilateral orchidectomies were performed in sterilized surgical conditions under isoflurane anesthesia. An anteroposterior incision was made in the scrotum. The testicles were exteriorized and the spermatic artery and vas deferens were ligated with 4.0 silk 0.5 cm proximal to the ligation site. The testicles then were removed by a surgical scissors distal to the ligation sites. The tissue stumps were returned to the scrotum, the scrotum and overlying skin were closed by a surgical stapler. The Sham-ORX rats underwent all procedures except ligation and scissors cutting. The rats were assigned randomly into study groups 7-10 days post surgery based on the body weight.
Dihydrotestosterone (DHT) and the standard SARM, S-22, (J. Pharma. Exper. Thera. Vol 315, p. 230) were used as a positive control (1-10 mg/kg s.c. for DHT and 0.1 to 3 mg/kg p.o. for S-22). Compounds of the current invention were administered subcutaneously or orally for 4-28 days. Alternatively, some compounds of the current invention were administered subcutaneously or orally for 7-49 days. The rats were weighed daily and doses were adjusted accordingly. The general well being of the animal was monitored throughout the course of the study.
At the end of the study, the rats were euthanized in a CO2 chamber. The ventral prostate glands (VP), seminal vesicles (SV), levator ani muscle (LA) and bulbocavernosus (BC) were carefully dissected. The tissues were blotted dry; the weights were recorded, and then saved for histological and molecular analysis. The VP and SV weights serve as androgenic indicators and LA and BC as anabolic indicators. The ratio of anabolic to androgenic activities was used to evaluate the test compounds. Serum luteinizing hormone (LH), follicle stimulating hormone (FSH) and other potential serum markers of anabolic activities were also analyzed.
The compounds shown in Examples 9, 20, 26, 27, 33, 51, 52, and 53 were tested in the castrated male rate model essentially as described above. Test compounds were employed in free or salt form. […] Prostate sparing was defined as at least a 2:1 ratio of levator ani ED50 to prostate ED50. The ED50 is defined as 50% of the maximum response above the vehicle treated castrate level. For shorter term studies (4-7 days), the maximum response is defined as the maximum response from positive control (DHT or standard SARM, S-22) treatment. For the longer term studies (7-49 days), the ED50 is defined as 50% of the eugonadal state. […]

androgen receptor (MBP-hAR-LBD, rat androgen ligand binding domain), sequence (P15207 651-882): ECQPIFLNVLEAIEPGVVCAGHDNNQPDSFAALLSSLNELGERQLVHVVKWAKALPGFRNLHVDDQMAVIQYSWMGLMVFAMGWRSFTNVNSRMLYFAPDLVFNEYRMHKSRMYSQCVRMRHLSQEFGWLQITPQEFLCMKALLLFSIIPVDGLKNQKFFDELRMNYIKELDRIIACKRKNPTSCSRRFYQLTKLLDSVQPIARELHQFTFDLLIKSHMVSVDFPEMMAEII

Turning to `CCC(C(=O)OC)n1c(C)cc2c(C(F)(F)F)c(C#N)ccc21` (stereo not shown) [Example 2, Methyl 2-[5-cyano-2-methyl-4-(trifluoromethyl)-1H-indol-1-yl]butanoate], the Emax in assay [1] came to 72%.

Take `Cc1cc2c(C(F)(F)F)c(C#N)ccc2n1C(C)CO` (stereo not shown) [Example 7, 1-(1-Hydroxypropan-2-yl)-2-methyl-4-(trifluoromethyl)-1H-indole-5-carbonitrile]: the Emax in assay [1] was 100%.

Take `Cc1cc2c(C(F)(F)F)c(C#N)ccc2n1C(C)CS(C)(=O)=O` (stereo not shown) [Example 9, 2-Methyl-1-(1-(methylsulfonyl)propan-2-yl)-4-(trifluoromethyl)-1H-indole-5-carbonitrile]: in assay [2], the prostate sparing result is reported as “spared the prostate” and the levator ani hypertrophy result is given as “favorable levator ani hypertrophy”.

Take `CCCc1cc2c(C(F)(F)F)c(C#N)ccc2n1CC(C)(C)O` [Example 12, 1-(2-Hydroxy-2-methylpropyl)-2-propyl-4-(trifluoromethyl)-1H-indole-5-carbonitrile]: the Emax in assay [1] stood at 90%.

In the case of `CSCC(C)n1c(C(F)F)cc2c(C#N)c(C#N)ccc21` (stereo not shown) [Example 17, 2-(Difluoromethyl)-1-(1-(methylthio)propan-2-yl)-1H-indole-4,5-dicarbonitrile], the Emax in assay [1] turned out to be 99%.

On to `C[C@H](n1ccc2c(C(F)(F)F)c(C#N)ccc21)C(C)(C)O` [Example 21, (S)-1-(3-Hydroxy-3-methylbutan-2-yl)-4-(trifluoromethyl)-1H-indole-5-carbonitrile], for which the Emax in assay [1] was 100%.

`C[C@@H](n1ccc2c(C(F)(F)F)c(C#N)ccc21)C(C)(C)O` [Example 22, (R)-1-(3-Hydroxy-3-methylbutan-2-yl)-4-(trifluoromethyl)-1H-indole-5-carbonitrile]: the Emax in assay [1] was determined as 100%.

`CC(CS(C)(=O)=O)n1ccc2c(C(F)(F)F)c(C#N)ccc21` (stereo not shown) [Example 26, 1-(1-(Methylsulfonyl)propan-2-yl)-4-(trifluoromethyl)-1H-indole-5-carbonitrile]: in assay [2], the prostate sparing result is “spared the prostate” and the levator ani hypertrophy entry is on record as “favorable levator ani hypertrophy”.

On to `C[C@H](CS(C)(=O)=O)n1ccc2c(C(F)(F)F)c(C#N)ccc21` [Example 27, (R)-1-(1-(Methylsulfonyl)propan-2-yl)-4-(trifluoromethyl)-1H-indole-5-carbonitrile], for which the Emax in assay [1] was found to be 91%. In addition, in assay [2], the prostate sparing result is recorded as “spared the prostate” and the levator ani hypertrophy result is recorded as “favorable levator ani hypertrophy”.

As for `C[C@H](n1ccc2c(Cl)c(C#N)ccc21)C(C)(C)O` [Example 32, (S)-4-Chloro-1-(3-hydroxy-3-methylbutan-2-yl)-1H-indole-5-carbonitrile], in assay [1], the Emax was determined as 78%.

As to `CC(C)(O)C(C)(C)n1ccc2c(C#N)c(C#N)ccc21` [Example 43, 1-(3-Hydroxy-2,3-dimethylbutan-2-yl)-1H-indole-4,5-dicarbonitrile], in assay [1], the Emax was 105%.

Turning to `CC[C@H](c1cncc(C#N)c1)n1ccc2c(C#N)c(C#N)ccc21` [Example 51, (R)-1-(1-(5-Cyanopyridin-3-yl)propyl)-1H-indole-4,5-dicarbonitrile], in assay [2], the prostate sparing result was “spared the prostate” and the levator ani hypertrophy result is “favorable levator ani hypertrophy”.

For `C[C@@H](n1ccc2c(Cl)c(C#N)ccc21)[C@](C)(O)C(F)(F)F` [Example 52, 4-Chloro-1-((2R,3S)-4,4,4-trifluoro-3-hydroxy-3-methylbutan-2-yl)-1H-indole-5-carbonitrile], in assay [1], the Emax turned out to be 97%. Besides, in assay [2], the prostate sparing result is given as “spared the prostate” and the levator ani hypertrophy result is “favorable levator ani hypertrophy”.

Regarding `C[C@@H](n1ccc2c(C(F)(F)F)c(C#N)ccc21)[C@](C)(O)C(F)(F)F` [Example 53, 1-((2R,3S)-4,4,4-Trifluoro-3-hydroxy-3-methylbutan-2-yl)-4-(trifluoromethyl)-1H-indole-5-carbonitrile], in assay [2], the prostate sparing result was “spared the prostate” and the levator ani hypertrophy result is “favorable levator ani hypertrophy”.
